Read-outs that look alike come from different tables or passages of the source. Square brackets hold non-standard residues; d marks the D form. Peptide text beside a SMILES is read from it. * marks the point of attachment. Fluorescein(5-NHCOCH2) = O=C(C*)Nc1ccc2c(c1)C(=O)OC21c2ccc(O)cc2Oc2cc(O)ccc21; pS = N[C@@H](COP(=O)(O)O)C(=O)O; Sar = CNCC(=O)O
Tests used:
CBP KIX wild type = biological target: T1, CBP KIX wild type (Mus musculus, UniProt P45481); test: Equilibrium fluorescence polarization, wild type CBP KIX; type: binding; details: 25° C.
T1 construct: made in house; host or cells: E. coli BL21(DE3) pArg

[1] = biological target: T2, HisKIX (His-tagged CBP KIX domain) (Mus musculus, UniProt P45481); test: Equilibrium fluorescence polarization, HisKIX binding; details: for Kd: 25° C.
T2 construct: The CBP KIX-coding region (residues 586 to 672) of pGEX-KT KIX 10-672; made in house; host or cells: E. coli BL21(DE3) pArg

[2] = fluorescein-labeled unphosphorylated peptide, read-out: Kd HisKIX, unphosphorylated peptide (U)

T2 sequence (P45481 586-672): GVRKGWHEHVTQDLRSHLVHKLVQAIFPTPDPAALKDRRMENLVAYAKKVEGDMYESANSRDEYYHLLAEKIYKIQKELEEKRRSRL
T1 sequence (P45481 586-665 limits assumed): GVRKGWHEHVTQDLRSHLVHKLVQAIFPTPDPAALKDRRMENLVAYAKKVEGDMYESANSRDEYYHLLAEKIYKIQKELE

| SMILES | Kd (CBP KIX wild type) | Kd [1, 2] | further results |
| --- | --- | --- | --- |
| CC[C@H](C)[C@H](NC(=O)[C@H](Cc1ccc(O)cc1)NC(=O)[C@H](Cc1ccccc1)NC(=O)[C@H](Cc1ccccc1)NC(=O)[C@H](COP(=O)(O)O)NC(=O)[C@H](CC(C)C)NC(=O)[C@H](CCCNC(=N)N)NC(=O)[C@H](CCCNC(=N)N)NC(=O)[C@@H](NC(=O)[C@@H]1CCCN1C(=O)[C@H](C)NC(=O)[C@H](CC(=O)O)NC(=O)[C@H](CC(=O)O)NC(=O)CNC(=O)[C@@H]1CCCN1C(=O)[C@H](Cc1ccc(O)cc1)NC(=O)[C@@H](NC(=O)CN(C)C(=O)[C@H](CCC(N)=O)NC(=O)[C@H](CO)NC(=O)[C@@H]1CCCN1C(=O)CN)[C@@H](C)O)C(C)C)C(=O)N[C@@H](CC(C)C)C(=O)N[C@@H](CC(C)C)C(=O)N[C@@H](CC(=O)O)C(=O)N[C@@H](CC(C)C)C(=O)N[C@@H](Cc1ccc(O)cc1)C(=O)N[C@@H](CC(C)C)C(=O)N[C@@H](CC(=O)O)C(=O)N[C@@H](C)C(=O)N1CCC[C@H]1C(=O)NCC(=O)N[C@H](C(=O)N[C@@H](CSCC(=O)Nc1ccc2c(c1)C(=O)OC21c2ccc(O)cc2Oc2cc(O)ccc21)C(N)=O)C(C)C [P5Z] (H-GPSQ[Sar]TYPGDDAPVRRL[pS]FFYILLDLYLDAPGVC(Fluorescein(5-NHCOCH2))-NH2) | 800 ± 30 nM |  |  |
| CC[C@H](C)[C@H](NC(=O)[C@H](Cc1ccc(O)cc1)NC(=O)[C@H](Cc1ccccc1)NC(=O)[C@H](Cc1ccccc1)NC(=O)[C@H](COP(=O)(O)O)NC(=O)[C@H](CC(C)C)NC(=O)[C@H](CCCNC(=N)N)NC(=O)[C@H](CCCNC(=N)N)NC(=O)[C@@H](NC(=O)[C@@H]1CCCN1C(=O)[C@H](C)NC(=O)[C@H](CC(=O)O)NC(=O)[C@H](CC(=O)O)NC(=O)CNC(=O)[C@H](C)NC(=O)[C@H](Cc1ccc(O)cc1)NC(=O)[C@@H](NC(=O)[C@@H]1CCCN1C(=O)[C@H](CCC(N)=O)NC(=O)[C@H](CO)NC(=O)[C@@H]1CCCN1C(=O)CN)[C@@H](C)O)C(C)C)C(=O)N[C@@H](CC(C)C)C(=O)N[C@@H](CC(C)C)C(=O)N[C@@H](CC(=O)O)C(=O)N[C@@H](CC(C)C)C(=O)N[C@@H](Cc1ccc(O)cc1)C(=O)N[C@@H](CC(C)C)C(=O)N[C@@H](CC(=O)O)C(=O)N[C@@H](C)C(=O)N1CCC[C@H]1C(=O)NCC(=O)N[C@H](C(=O)N[C@@H](CSCC(=O)Nc1ccc2c(c1)C(=O)OC21c2ccc(O)cc2Oc2cc(O)ccc21)C(N)=O)C(C)C [P8A] (H-GPSQPTYAGDDAPVRRL[pS]FFYILLDLYLDAPGVC(Fluorescein(5-NHCOCH2))-NH2) | 1070 ± 80 nM |  |  |
| CC[C@H](C)[C@H](NC(=O)CN)C(=O)N[C@@H](CO)C(=O)N[C@@H](Cc1c[nH]c2ccccc12)C(=O)N1CCC[C@H]1C(=O)N[C@H](C(=O)N[C@@H](Cc1ccccc1)C(=O)N[C@@H](CCC(=O)O)C(=O)NCC(=O)N[C@@H](CC(=O)O)C(=O)N[C@@H](CC(=O)O)C(=O)N[C@@H](C)C(=O)N1CCC[C@H]1C(=O)N[C@H](C(=O)N[C@@H](CCCNC(=N)N)C(=O)N[C@@H](CCCNC(=N)N)C(=O)N[C@@H](CC(C)C)C(=O)N[C@@H](CCC(=O)O)C(=O)N[C@@H](Cc1ccccc1)C(=O)N[C@@H](Cc1ccccc1)C(=O)N[C@@H](Cc1ccc(O)cc1)C(=O)N[C@H](C(=O)N[C@@H](CC(C)C)C(=O)N[C@@H](CC(C)C)C(=O)N[C@@H](CC(=O)O)C(=O)N[C@@H](CC(C)C)C(=O)N[C@@H](Cc1ccc(O)cc1)C(=O)N[C@@H](CC(C)C)C(=O)N[C@@H](CC(=O)O)C(=O)N[C@@H](C)C(=O)N1CCC[C@H]1C(=O)NCC(=O)N[C@H](C(=O)N[C@@H](CSCC(=O)Nc1ccc2c(c1)C(=O)OC21c2ccc(O)cc2Oc2cc(O)ccc21)C(N)=O)C(C)C)[C@@H](C)CC)C(C)C)[C@@H](C)O [PPKID6 S18E] (H-GISWPTFEGDDAPVRRLEFFYILLDLYLDAPGVC(Fluorescein(5-NHCOCH2))-NH2) |  | 10900 ± 2000 nM |  |
| CC[C@H](C)[C@H](NC(=O)[C@H](Cc1ccc(O)cc1)NC(=O)[C@H](Cc1ccccc1)NC(=O)[C@H](Cc1ccccc1)NC(=O)[C@H](COP(=O)(O)O)NC(=O)[C@H](CC(C)C)NC(=O)[C@H](CCCNC(=N)N)NC(=O)[C@@H](N)CCCNC(=N)N)C(=O)N[C@@H](CC(C)C)C(=O)N[C@@H](CC(C)C)C(=O)N[C@@H](CC(=O)O)C(=O)N[C@@H](CC(C)C)C(=O)N[C@@H](Cc1ccc(O)cc1)C(=O)N[C@@H](CC(C)C)C(=O)N[C@@H](CC(=O)O)C(=O)N[C@@H](C)C(=O)N1CCC[C@H]1C(=O)NCC(=O)N[C@H](C(=O)N[C@@H](CSCC(=O)Nc1ccc2c(c1)C(=O)OC21c2ccc(O)cc2Oc2cc(O)ccc21)C(N)=O)C(C)C [Peptide C, reference compound] (H-RRL[pS]FFYILLDLYLDAPGVC(Fluorescein(5-NHCOCH2))-NH2) |  |  | fold higher HisKIX affinity than KID-B^P [1]: greater than 20 fold; ΔΔG of CBP KIX binding compared to KID-B of the same phosphorylation state ([1]; listed as peptide C^P): -1.8 kcal/mol; ΔΔG of CBP KIX binding compared to KID-B of the same phosphorylation state ([1]; listed as peptide C^U): > -1.5 kcal/mol |

The next lines start with results.

| Kd (CBP KIX wild type) | Kd [1, 2] | SMILES | further results |
| --- | --- | --- | --- |
|  | 2300 ± 200 nM | CC[C@H](C)[C@H](NC(=O)[C@H](Cc1ccc(O)cc1)NC(=O)[C@H](Cc1ccccc1)NC(=O)[C@H](Cc1ccccc1)NC(=O)[C@H](CO)NC(=O)[C@H](CC(C)C)NC(=O)[C@H](CCCNC(=N)N)NC(=O)[C@H](CCCNC(=N)N)NC(=O)[C@@H](NC(=O)[C@@H]1CCCN1C(=O)[C@H](C)NC(=O)[C@H](CC(=O)O)NC(=O)[C@H](CC(=O)O)NC(=O)CNC(=O)[C@H](Cc1c[nH]c2ccccc12)NC(=O)[C@H](CCC(=O)O)NC(=O)[C@@H](NC(=O)[C@H](Cc1ccc(O)cc1)NC(=O)[C@@H]1CCCN1C(=O)[C@H](CO)NC(=O)[C@H](CC(C)C)NC(=O)CN)[C@@H](C)O)C(C)C)C(=O)N[C@@H](CC(C)C)C(=O)N[C@@H](CC(C)C)C(=O)N[C@@H](CC(=O)O)C(=O)N[C@@H](CC(C)C)C(=O)N[C@@H](Cc1ccc(O)cc1)C(=O)N[C@@H](CC(C)C)C(=O)N[C@@H](CC(=O)O)C(=O)N[C@@H](C)C(=O)N1CCC[C@H]1C(=O)NCC(=O)N[C@H](C(=O)N[C@@H](CSCC(=O)Nc1ccc2c(c1)C(=O)OC21c2ccc(O)cc2Oc2cc(O)ccc21)C(N)=O)C(C)C [PPKID7] (H-GLSPYTEWGDDAPVRRLSFFYILLDLYLDAPGVC(Fluorescein(5-NHCOCH2))-NH2) | Kd ([1]; label shows phosphorylated (P) or unphosphorylated (U) form, read-out: Kd HisKIX): 1500 to 3100 nM |
|  | 6600 ± 2000 nM | CC[C@H](C)[C@H](NC(=O)[C@H](Cc1ccc(O)cc1)NC(=O)[C@H](Cc1ccccc1)NC(=O)[C@H](Cc1ccccc1)NC(=O)[C@H](COP(=O)(O)O)NC(=O)[C@H](CC(C)C)NC(=O)[C@H](CCCNC(=N)N)NC(=O)[C@H](CCCNC(=N)N)NC(=O)[C@@H](NC(=O)[C@@H]1CCCN1C(=O)[C@H](C)NC(=O)[C@H](CC(=O)O)NC(=O)[C@H](CC(=O)O)NC(=O)CNC(=O)[C@H](Cc1c[nH]cn1)NC(=O)[C@H](Cc1ccc(O)cc1)NC(=O)[C@@H](NC(=O)[C@@H]1CCCN1C(=O)[C@H](Cc1c[nH]c2ccccc12)NC(=O)[C@H](CO)NC(=O)[C@H](CC(C)C)NC(=O)CN)[C@@H](C)O)C(C)C)C(=O)N[C@@H](CC(C)C)C(=O)N[C@@H](CC(C)C)C(=O)N[C@@H](CC(=O)O)C(=O)N[C@@H](CC(C)C)C(=O)N[C@@H](Cc1ccc(O)cc1)C(=O)N[C@@H](CC(C)C)C(=O)N[C@@H](CC(=O)O)C(=O)N[C@@H](C)C(=O)N1CCC[C@H]1C(=O)NCC(=O)N[C@H](C(=O)N[C@@H](CSCC(=O)Nc1ccc2c(c1)C(=O)OC21c2ccc(O)cc2Oc2cc(O)ccc21)C(N)=O)C(C)C [PPKID5] | Kd ([1]; fluorescein-labeled phosphopeptide, read-out: Kd HisKIX, phosphorylated peptide (P)): 534 ± 31 nM |

— US20110028686A1, “Protein binding miniature proteins” (Yale University, priority 2000, published 2011)
